Measured values reported in publication PMC5876303, “Discovery of C-3 Tethered 2-oxo-benzo[1,4]oxazines as Potent Antioxidants: Bio-Inspired Based Design, Synthesis, Biological Evaluation, Cytotoxic, and in Silico Molecular Docking Studies” (Frontiers in Chemistry, 2018).
Converted amounts (≈) assume the structure as drawn. Where two headings read alike, the source gives them in different places.

Experiments:
[1] = Figure 1, cited from earlier work
[2] = DPPH radical scavenging antioxidant assay; assay type: biochemical; conditions: Table 1; mean ± SD, n = 3; 517 nm after 20 min
Description: In DPPH radical scavenging method the plant extract (0.75 mL) at different concentrations ranging from 10 to 100 μg mL^−1 was mixed with 1.5 mL of a DPPH methanolic solution (20 mg L^−1). Pure methanol was taken as control and ascorbic acid (vitamin C), vitamins A and E were used as a reference compounds. The absorbance was measured at 517 nm after 20 min of reaction. The % of DPPH decolouration of the sample was calculated according to the formula (Sharma and Bhat, [2009]).
Decolouration % = [1−(Abs SAMPLE/Abs CONTROL)]×100
The decolouration was plotted against the sample extract concentration and a logarithmic regression curve was established in order to calculate the IC50. The results are expressed as antiradical efficiency (AE), which is 1000-fold inverse of the IC50 value AE=1000/ IC50.

[3] = Ferric reducing antioxidant power (FRAP) assay; assay type: biochemical; conditions: for FRAP assay (C0.5FRAP): mean ± SD, n = 3, concentration equivalent to FeSO4 at 0.5 mmol/L, 37°C, 30 min, 593 nm; for FRAP potency compared with standard reference BHT: in words, BHT C0.5FRAP = 546.0 ± 13.6 μM
Description: The FRAP reagent was prepared by the addition of freshly prepared 20.0 mM FeCl3.6H2O solution, 10.0 mM of […] (TPTZ) solution and 300 mM sodium acetate buffer (pH 3.6) in a ratio of 1:1:10 (v/v/v). After that, Sample (our synthesized 2-oxo-2-phenylethylidenes-linked 2-oxo-benzo[1,4]oxazines 20a-ab) was added to 3 ml of freshly prepared FRAP reagent and this reaction mixture was incubated at 37°C temperature for 30 min. and the absorbance was measured at 593 nm. It is also noted that, a freshly prepared solution of FeSO4 was used for calibration of standard curve. The FRAP antioxidant capability were evaluated in terms of C0.5FRAP (the antioxidant capability of samples related to their concentration, which is equivalent to that of FeSO4 at 0.5 mmol/L) (Benzie and Strain, [1996]).
The FRAP assay was deliberated using the method as illustrated by Benzie and Strain (Benzie and Strain, [1996]). […] The reducing nature of an antioxidant depends on their property to donate a hydrogen atom for the breaking of the free radical chain, which is responsible for oxidative stress etc.

[4] = in vitro; assay type: cell-based; conditions: mouse, Cell viability (%)
Description: (§1) Cell toxicity of active C-3 tethered 2-oxo-benzo[1,4]oxazine analogs were accessed using 3T3 fibroblast cell lines in MTT assay via the reported protocol of Danihelová et al. ([2013]) [For details, see supporting information].
(§2) The cytotoxic effect of the active compounds prepared on cells was detected in vitro using the mitochondrial cytotoxic test according to Danihelová et al. (2013) with modifications. Cell viability was evaluated using thiazolyl blue tetrazolium bromide (MTT), which indicates the metabolic activity of cells. The experiment was performed in 96-well microplates. The cells were seeded at a density of 3.5×10^3 3T3 fibroblast cells per well. Samples were dissolved in DMSO (stock solution 10 […]
(§3) (concentration of DMSO 0.5%) and after 24 h they were added to the cells. Microplates were cultivated for 72 h in thermostat at 37 °C and 5% CO 2 atmosphere. After incubation thiazolyl blue tetrazolium bromide (3.33 mg/ml phosphate buffered saline, pH=7.4) was pipetted to each well and left to incubate for further two hours. Then the medium with MTT solution was removed. Formazan crystals in viable cells were dissolved in the lysis solution (4 mM HCl and 0.1% Nonidet P40 in ethanol). Microplates were shaken 15 min at 1500 rpm. Absorbance was measured at 540 nm and reference wavelength at 740 nm. Each value is the mean of 6 wells with standard deviation.
(§4) Inhibition activity was expressed as percentages of control with DMSO.

[5] = tested on: 3T3 fibroblast cell lines; experiment: in vitro; assay type: cell-based; conditions: mouse, 72 h, 250 μg/ml
Description: as §1, §2, §3, §4

[6] = ref Niemeyer, 2009, Adhikari et al., 2013, Glenska et al., 2015

Row | SMILES | DPPH assay IC50 [2] [µg/mL] | melting point [°C] | % DPPH-scavenging activity [1, 6] [%] | IC50 (antioxidant activity) [1, 6] [µg/mL] | % DPPH-scavenging activity ([1]; ref Sáncheza et al., 2014) [%] | IC50 (antioxidant activity) ([1]; ref Harput et al., 2011) [µg/mL] | FRAP assay (C0.5FRAP) [3] [µM] | viability at 72 h, 25 μg/ml [4] [%] | viability at 72 h, 50 μg/ml [4] [%] | viability at 72 h, 100 μg/ml [4] [%] | viability at 72 h, 250 μg/ml [4] [%] | Cell viability (%) [5] [%] | FRAP potency compared with standard reference BHT [3]
1 | COc1ccc2c(c1)OC(O)C(=O)N2O (stereo not drawn) [Compound 1, DIMBOA] |  |  | 98.57 | 11.31 (≈ 53.6 µM) |  |  |  |  |  |  |  |  | 
2 | O=c1[nH]c2ccccc2c(=O)o1 [Compound 4, 2H-benzo[d][1,3]oxazine-2,4(1H)-dione] |  |  |  |  | 17.2 ± 4.15 |  |  |  |  |  |  |  | 
3 | O=C1Nc2ccccc2OC1O (stereo not drawn) [Compound 5, 2-Hydroxy-1,4-benzoxazin-3(4H)-one] |  |  |  |  |  | 39.29 (≈ 238 µM) |  |  |  |  |  |  | 

The next lines start with results.

Row | DPPH assay IC50 [2] [µg/mL] | melting point [°C] | SMILES | % DPPH-scavenging activity [1, 6] [%] | IC50 (antioxidant activity) [1, 6] [µg/mL] | % DPPH-scavenging activity ([1]; ref Sáncheza et al., 2014) [%] | IC50 (antioxidant activity) ([1]; ref Harput et al., 2011) [µg/mL] | FRAP assay (C0.5FRAP) [3] [µM] | viability at 72 h, 25 μg/ml [4] [%] | viability at 72 h, 50 μg/ml [4] [%] | viability at 72 h, 100 μg/ml [4] [%] | viability at 72 h, 250 μg/ml [4] [%] | Cell viability (%) [5] [%] | FRAP potency compared with standard reference BHT [3]
4 | 6.89 ± 0.07 | 200 to 203 | COc1ccc(C(=O)/C=C2\Nc3ccccc3OC2=O)cc1 [Compound 20b, (Z)-3-[2-(4-methoxy-phenyl)-2-oxo-ethylidene]-3,4-dihydro-benzo [1, 4] oxazin-2-one] |  |  |  |  | 686.4 ± 30.8 | 92.1 | 88.4 | 80.7 | > 65 | 75.58 | 
5 | 4.74 ± 0.08 | 198 to 200 | O=C1Oc2ccc([N+](=O)[O-])cc2N/C1=C\C(=O)c1ccccc1 [Compound 20t, (Z)-6-nitro-3-(2-oxo-2-phenylethylidene)-3,4-dihydro-2H-benzo[b][1,4]oxazin-2-one] |  |  |  |  | 638.2 ± 32.6 | 89.7 | 80.5 | 74.9 | > 65 | 67.46 | less active than BHT
6 | 10.18 ± 0.1 | 235 to 237 | O=C1Oc2cc([N+](=O)[O-])ccc2N/C1=C\C(=O)c1ccc(F)cc1 [Compound 20x, (Z)-3-(2-(4-fluorophenyl)-2-oxoethylidene)-7-nitro-3,4-dihydro-2H-benzo[b][1,4]oxazin-2-one] |  |  |  |  | 628.6 ± 32.4 | 95.5 | 86.7 | 81.1 | > 65 | 73.91 | 
7 | 28.8 ± 0.67 | 208 to 210 | O=C1Oc2cc([N+](=O)[O-])ccc2N/C1=C\C(=O)c1ccc(Cl)cc1Cl [Compound 20z, (Z)-3-(2-(2,4-dichlorophenyl)-2-oxoethylidene)-7-nitro-3,4-dihydro-2H-benzo[b][1,4]oxazin-2-one] |  |  |  |  | 437.6 ± 39.4 |  |  |  |  |  | more potent than standard reference BHT
